Type in all cases: functional, organism-based
Test [1] relates to Plasmodium falciparum. The test is described as follows: Antiplasmodial activity against chloroquine-sensitive Plasmodium falciparum D10.
For test [2], the system named is Plasmodium falciparum. As to the kind of experiment: Antiplasmodial activity against chloroquine-resistant Plasmodium falciparum W2.
Test [3] concerns Plasmodium falciparum. As to the kind of experiment: Antiplasmodial activity against chloroquine-resistant Plasmodium falciparum K1.
In test [4] the test system is Plasmodium falciparum. As to the kind of experiment: Antiplasmodial activity against chloroquine-sensitive Plasmodium falciparum 3D7.

In the case of `Clc1ccc2/c(=N/CCCN3CCN(CCCNCC4N=CC=N4)CC3)cc[nH]c2c1`, the IC50 with Plasmodium falciparum [1] was 1610 µM; with Plasmodium falciparum [2], 1440 µM.

In the case of `O=C(c1ccc(CNCCCN2CCN(CCC/N=c3\cc[nH]c4cc(Cl)ccc34)CC2)cc1)c1cccc(Cl)c1`, the IC50 with Plasmodium falciparum [3] is 16 µM; in the test with Plasmodium falciparum [4], 1.6 µM; with Plasmodium falciparum [1], 26 µM; with Plasmodium falciparum [2], 33 µM.

For the compound `OC(c1ccc(CNCCCN2CCN(CCC/N=c3\cc[nH]c4cc(Cl)ccc34)CC2)cc1)c1cccc(Cl)c1` (stereo not drawn), the IC50 came to 135 µM in the test with Plasmodium falciparum [3], 28 µM in the test with Plasmodium falciparum [4], 145 µM in the test with Plasmodium falciparum [1] and 269 µM in the test on Plasmodium falciparum [2].

Turning to `CS(=O)(=O)OC(c1ccc(CNCCCN2CCN(CCC/N=c3\cc[nH]c4cc(Cl)ccc34)CC2)cc1)c1cccc(Cl)c1` (stereo not drawn), the IC50 in the test on Plasmodium falciparum [3] is 447 µM; with Plasmodium falciparum [4], 7.8 µM; in the test with Plasmodium falciparum [1], 110 µM; with Plasmodium falciparum [2], 98 µM.

For `CCN(CC)CCCC(C)NC1CC=Nc2cc(Cl)ccc21` (stereo not drawn), the IC50 is 260 µM in the test on Plasmodium falciparum [3], 10 µM with Plasmodium falciparum [4], 22 µM in the test with Plasmodium falciparum [1] and 280 µM in the test with Plasmodium falciparum [2].

`O=C(NCCCN1CCN(CCC/N=c2\cc[nH]c3cc(Cl)ccc23)CC1)C(c1cccc(Cl)c1)n1ccnc1` (stereo not drawn): the IC50 in the test with Plasmodium falciparum [3] was determined as 200 µM; in the test with Plasmodium falciparum [4] it was 40 µM; with Plasmodium falciparum [1], 221 µM; in the test on Plasmodium falciparum [2], 540 µM.

As to `Clc1ccc2/c(=N/CCCN3CCN(CCCNCc4ccc(CN5CCCC5)cc4)CC3)cc[nH]c2c1`, the IC50 is 260 µM with Plasmodium falciparum [1] and 207 µM with Plasmodium falciparum [2].

Take `Clc1cccc(C(NCCCN2CCN(CCC/N=c3\cc[nH]c4cc(Cl)ccc34)CC2)c2ccc(CN3CCCC3)cc2)c1` (stereo not drawn): the IC50 with Plasmodium falciparum [1] stood at 663 µM; in the test on Plasmodium falciparum [2], 495 µM.

Regarding `Clc1ccc2/c(=N/CCCN3CCN(CCCNc4nc5ccccc5[nH]4)CC3)cc[nH]c2c1`, the IC50 amounted to 407 µM with Plasmodium falciparum [1] and 535 µM in the test on Plasmodium falciparum [2].

A word on the IC50: it is the concentration at which inhibition is half-maximal. Read a low IC50 as inhibition by little substance.

Values taken from ChEMBL document CHEMBL1148880, “Development of piperazine-tethered heterodimers as potent antimalarials against chloroquine-resistant P. falciparum strains. Synthesis and molecular modeling” (Bioorg Med Chem Lett, 2007).
